Experimental data from patent US20170239289A1, “TREATMENT OF INFLAMMATION, RESPIRATORY TRACT INFECTIONS AND CYSTIC FIBROSIS” (Advanced Inhalation Therapies (AIT) Ltd., priority 2014, published 2017).

Test system: human subjects diagnosed with cystic fibrosis
Assay: Example 4: lung function indices by spirometry
Format: in vivo
Protocol: In addition to their standard care, subjects were administered three 30-minute inhalations per day of 160 ppm NO (with O2/air) for 10 working days (i.e., 5 days on treatment, 2 days off treatment, 5 days on treatment, for a total of 10 treatment days and 30 inhalations).
Secondary Endpoints—Efficacy: • Comparison of FEV1 improvement before and after NO treatment Observational Endpoints: • To determine the reduction in bacterial and fungal sputum load during each week of NO treatment compared to bacterial sputum load before NO treatment • Assess the improvement of lung function indices during and after NO intermittent inhalation treatment as determined by spirometry (i.e., FVC, FEV1, FEV1/FVC, forced expiratory flow 25% to 75% (FEF 25-75)) • Evaluate C-reactive protein (CRP) levels over time • Number of subjects with study drug related bleeding at any time point
The Signed rank test for two means was applied for analyzing changes from baseline in continuous parameters: • FEV1% • Specific bacterial colonization (i.e., S. aureus, P. aeruginosa)

[1] = Follow-up 2 (2 weeks after Day 10), n=9

[N]=O [NO, nitric oxide]
FEF 25-75% Absolute, Mean (Day 1, n=9): 30.000% | FEF 25-75% Absolute, Median (Day 1, n=9): 27.000% | FEF 25-75 Absolute, Mean (Day 1, n=9): 1.151 L/s | FEF 25-75 Absolute, Median (Day 1, n=9): 1.090 L/s | FEV1/FVC, Mean (Day 1, n=9): 68.778% | FEV1/FVC, Median (Day 1, n=9): 69.000% | FEV1 Absolute, Mean (Day 1, n=9): 1.871 L | FEV1 Absolute, Median (Day 1, n=9): 1.700 L | FEV1 Predicted, Mean (Day 1, n=9): 62.222% | FEV1 Predicted, Median (Day 1, n=9): 64.000% | FVC Absolute, Mean (Day 1, n=9): 2.756 L | FVC Absolute, Median (Day 1, n=9): 2.360 L | FVC Predicted, Mean (Day 1, n=9): 79.889% | FVC Predicted, Median (Day 1, n=9): 90.000% | FEF 25-75% Absolute, Mean (Day 10, n=9): 28.111% | FEF 25-75% Absolute, Median (Day 10, n=9): 22.000% | FEF 25-75 Absolute, Mean (Day 10, n=9): 1.090 L/s | FEF 25-75 Absolute, Median (Day 10, n=9): 0.880 L/s | FEV1/FVC, Mean (Day 10, n=9): 65.111% | FEV1/FVC, Median (Day 10, n=9): 66.000% | FEV1 Absolute, Mean (Day 10, n=9): 1.833 L | FEV1 Absolute, Median (Day 10, n=9): 1.610 L | FEV1 Predicted, Mean (Day 10, n=9): 60.444% | FEV1 Predicted, Median (Day 10, n=9): 59.000% | FVC Absolute, Mean (Day 10, n=9): 2.759 L | FVC Absolute, Median (Day 10, n=9): 2.340 L | FVC Predicted, Mean (Day 10, n=9): 79.556% | FVC Predicted, Median (Day 10, n=9): 84.000% | FEF 25-75% Absolute, Mean [1]: 29.667% | FEF 25-75% Absolute, Median [1]: 23.000% | FEF 25-75 Absolute, Mean [1]: 1.118 L/s | FEF 25-75 Absolute, Median [1]: 0.910 L/s | FEV1/FVC, Mean [1]: 66.000% | FEV1/FVC, Median [1]: 65.000% | FEV1 Absolute, Mean [1]: 1.852 L | FEV1 Absolute, Median [1]: 1.630 L | FEV1 Predicted, Mean [1]: 62.889% | FEV1 Predicted, Median [1]: 60.000% | FVC Absolute, Mean [1]: 2.786 L | FVC Absolute, Median [1]: 2.390 L | FVC Predicted, Mean [1]: 81.889% | FVC Predicted, Median [1]: 85.000% | mean (SD) FEV1 change (from Day 1 to Day 10, N=9, p=0.992): −0.11% | Lung function indices over time (throughout the study): no clinically significant changes
